The target in assay [1] is human IRAK4 FL (Full Length) (Homo sapiens (Human), UniProt Q9NWZ3). In words: IRAK4 Enzymatic DELFIA Assay, Protocol A. The assay is classed as biochemical. Conditions: human IRAK4 FL, 0.6 mM ATP (KM); read-out: IRAK4 DELFIA Protocol A IC50.
The subject of assay [2] is R848-induced TNFα production by human peripheral blood mononuclear cells (PBMCs). In words: R848 Induced TNFα in Human PBMC Assay. The assay is classed as cell-based. Conditions: Homo sapiens, PBMC, 3 h, read-out: R848-induced TNFa PBMC IC50 (nM).
Source text: This protocol is for R848-induced TNFα production by human peripheral blood mononuclear cells (PBMCs). […] The assay is used to assess cell-based potency of small molecule inhibitors of IRAK4 in the absence of serum.
The PBMCs in the interphase layer were collected and washed with PBS via centrifugation multiple times until the supernatant is clear. The purified PBMCs were re-suspended in RPMI (Roswell Park Memorial Institute) media (Sigma-Aldrich).
For the assay, a compound dilution plate containing a top concentration of 4 mM compound in DMSO was serially diluted 4-fold for 11 times. 250 nL of the compound dilution plate was spotted into a 384-well, flat bottom with lid, TC-treated, black with clear bottom, sterile, polystyrene plate (Corning Life Sciences).
10 μL of anti-TNFα antibody labeled with MSD SULFO-TAG at 50 μg/mL was added to each well and allowed to incubate overnight at 4° C.
In assay [3] the target is human IRAK4 kinase domain (aa 154-460) (Homo sapiens (Human), UniProt Q9NWZ3). The assay is described as follows: IRAK4 Enzymatic DELFIA Assay, Protocol B. Conditions: human IRAK4 kinase domain (aa 154-460), 0.6 mM ATP (KM); read-out: IRAK4 DELFIA Protocol B IC50. The assay is classed as biochemical. An excerpt:
IRAK4 Enzymatic DELFIA Assay, Protocol B.

In another assay the test system is serum TNF. In words: In Vivo Mouse LPS/D-Gal Challenge Model. The conditions noted are these: oral. As for the experimental part:
In Vivo Mouse LPS/D-Gal Challenge Model.
Efficacy of IRAK4 compounds of the present invention was also evaluated in an in vivo mouse model of endotoxin induced (Lipopolysaccharide (LPS)) inflammation. See: S. Copeland, H. W. Warren, S. F. Lowry, S. E. Calvano, and D. Remick, Clin. Diagn. Lab. Immnol. 2005, 12(1), 60-67. An exemplary protocol for this in vivo model follows.
Female C57/BL6 mice, 8 to 10 weeks old, are orally administered either vehicle or formulated IRAK-4 compound 1 hour prior to the challenge. Vehicle or IRAK4 compound is administered by oral gavage at a volume of 10 mL/kg. One hour post oral delivery of vehicle or compound, the animals are challenged with an intraperitoneal injection (IP) of a solution containing 1 μg/mL LPS and 80 mg/mL D-gal. Each mouse is injected with […] of the solution, for a final challenge dose of 100 ng LPS and 8 mg D-gal. Ninety minutes post LPS/D-gal challenge, animals are euthanized and blood collected. Blood is allowed to clot at room temperature and serum is separated by centrifugation and stored at −80° C. for analysis. Serum TNF and IL-6 are measured by Meso Scale Discovery (MSD) multiplex platform.
The groups consisted of N=10 animals/group. Naïve animals and vehicle control groups were run with each study. Mean cytokine data was plotted and students T-test was performed to calculate significance (t-test, p<0.05 vs. vehicle) of IRAK4 treated group vs. vehicle treated group. Percent inhibition of cytokine induction was calculated for IRAK4 treated group vs. vehicle treated group.
Table 4 contains data from multiple studies with columns for Compound, Dose in mg/kg (mpk) and % inhibition of serum TNF. In cases where doses of certain compounds were repeated in multiple experiments, the average percent inhibition of TNF and standard deviation is shown in the table.

human IRAK4 kinase domain (aa 154-460), sequence (Q9NWZ3 154-460): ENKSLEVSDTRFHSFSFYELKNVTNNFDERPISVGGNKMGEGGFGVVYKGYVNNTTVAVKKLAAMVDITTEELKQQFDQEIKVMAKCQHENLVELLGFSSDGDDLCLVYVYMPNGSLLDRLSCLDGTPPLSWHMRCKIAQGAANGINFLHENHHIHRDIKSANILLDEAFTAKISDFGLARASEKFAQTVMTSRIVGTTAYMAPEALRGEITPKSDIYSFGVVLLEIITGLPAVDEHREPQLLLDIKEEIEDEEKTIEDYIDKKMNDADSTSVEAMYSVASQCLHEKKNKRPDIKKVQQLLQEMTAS
human IRAK4 FL (Full Length), sequence (Q9NWZ3 whole entry): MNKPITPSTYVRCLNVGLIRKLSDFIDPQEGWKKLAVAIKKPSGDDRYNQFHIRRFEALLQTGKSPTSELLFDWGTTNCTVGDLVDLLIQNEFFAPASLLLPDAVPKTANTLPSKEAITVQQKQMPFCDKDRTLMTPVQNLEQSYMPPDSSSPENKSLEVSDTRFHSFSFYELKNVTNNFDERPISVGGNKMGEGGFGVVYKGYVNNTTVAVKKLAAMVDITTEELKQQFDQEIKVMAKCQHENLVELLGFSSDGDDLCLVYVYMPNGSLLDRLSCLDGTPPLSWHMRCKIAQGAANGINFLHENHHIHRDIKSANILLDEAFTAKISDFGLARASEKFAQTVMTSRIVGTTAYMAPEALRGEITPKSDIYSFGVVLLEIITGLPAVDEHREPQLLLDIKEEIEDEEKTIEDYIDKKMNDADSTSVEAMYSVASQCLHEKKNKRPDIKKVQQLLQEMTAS

`CC(C)Oc1cc2c(OC[C@@H]3CCN3C(=O)CC#N)nccc2cc1C(N)=O` [Example 73, 1-{[(2S)-1-(cyanoacetyl)azetidin-2-yl]methoxy}-7-(propan-2-yloxy)isoquinoline-6-carboxamide]: the results for the concentration for half-maximal inhibition (IC50) in assay [1], in assay [2] and in assay [3] were 4.37 µM, 1590 nM and 1.16 µM, respectively.

Turning to `CC(C)Oc1cc2c(OCC3CCN(C(=O)CC#N)CC3)ccnc2cc1C(N)=O` [Example 100, 4-{[1-(cyanoacetyl)piperidin-4-yl]methoxy}-6-(propan-2-yloxy)quinoline-7-carboxamide], the IC50 in assay [3] came to 0.482 µM.

For `CC(C)Oc1cc2c(O[C@H]3C[C@@H]4C[C@H]3CN4)nccc2cc1C(N)=O` [Example 101, 1-[(1S,4S,5S)-2-azabicyclo[2.2.1]hept-5-yloxy]-7-(propan-2-yloxy)isoquinoline-6-carboxamide], the half-inhibitory concentration (IC50) in assay [3] came to 1.18 µM.

On to `CC(C)Oc1cc2c(OC[C@@H]3CC(C)C(=O)N3)nccc2cc1C(N)=O` (stereo partly drawn) [Example 107, 1-{[(2S)-4-methyl-5-oxopyrrolidin-2-yl]methoxy}-7-(propan-2-yloxy)isoquinoline-6-carboxamide], for which the concentration for half-maximal inhibition (IC50) in assay [3] is 0.016 µM.

As to `CC(C)Oc1cc2c(O[C@@H]3C[C@@H]4CN[C@H]3C4)nccc2cc1C(N)=O` [Example 108, 1-[(1S,4R,6R)-2-azabicyclo[2.2.1]hept-6-yloxy]-7-(propan-2-yloxy)isoquinoline-6-carboxamide], the IC50 in assay [3] is 1.87 µM.

With `CC(C)Oc1cc2c(O[C@H]3C[C@@H]4CN[C@H]3C4)nccc2cc1C(N)=O` [Example 109, 1-[(1S,4R,6S)-2-azabicyclo[2.2.1]hept-6-yloxy]-7-(propan-2-yloxy)isoquinoline-6-carboxamide], the concentration for half-maximal inhibition (IC50) in assay [3] was found to be 1.91 µM.

Turning to `CC(C)Oc1cc2c(OCC3CNC(=O)C3)nccc2cc1C(N)=O` (centres unmarked) [Example 111, 1-[(5-oxopyrrolidin-3-yl)methoxy]-7-(propan-2-yloxy)isoquinoline-6-carboxamide], the IC50 in assay [3] came to 0.196 µM.

As to `CC(C)Oc1cc2c(OC[C@@H]3CCNC3)cccc2cc1C(N)=O` [Example 115, 3-(propan-2-yloxy)-5-[(3R)-pyrrolidin-3-ylmethoxy]naphthalene-2-carboxamide], the IC50 in assay [3] is 0.061 µM.

On to `CC(C)Oc1cc2c(OC[C@@H]3CCNC3)nccc2cc1C(N)=O` [Example 117, 7-(propan-2-yloxy)-1-[(3R)-pyrrolidin-3-ylmethoxy]isoquinoline-6-carboxamide], for which the IC50 in assay [3] amounted to 0.136 µM.

As to `CC(C)Oc1cc2c(OC[C@@H]3CCN3)nccc2cc1C(N)=O` [Example 119, 1-[(2S)-azetidin-2-ylmethoxy]-7-(propan-2-yloxy)isoquinoline-6-carboxamide], the half-maximal inhibitory concentration (IC50) in assay [3] was 1.43 µM.

For the molecule `CC(C)Oc1cc2c(O[C@@H]3CC[C@H]4CC(=O)N[C@H]43)nccc2cc1C(N)=O` [Example 130, 1-{[(3aS,6R,6aR)-2-oxooctahydrocyclopenta[b]pyrrol-6-yl]oxy}-7-(propan-2-yloxy)isoquinoline-6-carboxamide], the IC50 in assay [3] is 0.417 µM.

As for `CC(C)Oc1cc2c(OCC3CCNC(=O)C3)nccc2cc1C(N)=O` (centres unmarked) [Example 138, 1-[(2-oxopiperidin-4-yl)methoxy]-7-(propan-2-yloxy)isoquinoline-6-carboxamide], the IC50 in assay [3] came out at 1.04 µM.

On to `CC(C)Oc1cc2c(OC[C@]34CNC[C@H]3C4)nccc2cc1C(N)=O` [Example 139, 1-[(1S,5S)-3-azabicyclo[3.1.0]hex-1-ylmethoxy]-7-(propan-2-yloxy)isoquinoline-6-carboxamide], for which the half-inhibitory concentration (IC50) in assay [3] turned out to be 0.256 µM.

Take `CC(C)Oc1cc2c(OC[C@@]34CNC[C@@H]3C4)nccc2cc1C(N)=O` [Example 140, 1-[(1R,5R)-3-azabicyclo[3.1.0]hex-1-ylmethoxy]-7-(propan-2-yloxy)isoquinoline-6-carboxamide]: the IC50 in assay [3] was found to be 0.084 µM.

With `CC(C)Oc1cc2c(OC[C@@H]3CC(CO)C(=O)N3)nccc2cc1C(N)=O` (stereo partly drawn) [Example 148, 1-{[(2S)-4-(hydroxymethyl)-5-oxopyrrolidin-2-yl]methoxy}-7-(propan-2-yloxy)isoquinoline-6-carboxamide], in assay [3], the IC50 came out at 0.024 µM.

For `CC(C)Oc1cc2c(OC[C@H]3COCCN3)nccc2cc1C(N)=O` [Example 158, 1-[(3R)-morpholin-3-ylmethoxy]-7-(propan-2-yloxy)isoquinoline-6-carboxamide], the concentration for half-maximal inhibition (IC50) in assay [3] came out at 1.44 µM.

As for `CC(C)Oc1cc2c(OCC3CCCN3)nccc2cc1C(N)=O` (centres unmarked) [Example 159, 7-(propan-2-yloxy)-1-(pyrrolidin-2-ylmethoxy)isoquinoline-6-carboxamide], in assay [3], the half-maximal inhibitory concentration (IC50) was found to be 3.38 µM.

As to `CC(C)Oc1cc2c(OC[C@@H]3COCCN3)nccc2cc1C(N)=O` [Example 160, 1-[(3S)-morpholin-3-ylmethoxy]-7-(propan-2-yloxy)isoquinoline-6-carboxamide], in assay [3], the 50% inhibitory concentration (IC50) stood at 0.151 µM.

For `CC(C)Oc1cc2c(OC[C@@]34CNCC[C@@H]3C4)nccc2cc1C(N)=O` [Example 161, 1-[(1R,6S)-3-azabicyclo[4.1.0]hept-1-ylmethoxy]-7-(propan-2-yloxy)isoquinoline-6-carboxamide], the IC50 in assay [3] is 0.088 µM.

Consider `CC(C)Oc1cc2c(OC[C@]34CNCC[C@H]3C4)nccc2cc1C(N)=O` [Example 162, 1-[(1S,6R)-3-azabicyclo[4.1.0]hept-1-ylmethoxy]-7-(propan-2-yloxy)isoquinoline-6-carboxamide], for which the IC50 in assay [3] was determined as 0.035 µM.

For `CC(C)Oc1cc2c(OC[C@H]3NC(=O)[C@@H]4OC(C)(C)O[C@H]34)nccc2cc1C(N)=O` [Example 167, 1-{[(3aR,4R,6aR)-2,2-dimethyl-6-oxotetrahydro-3aH-[1,3]dioxolo[4,5-c]pyrrol-4-yl]methoxy}-7-(propan-2-yloxy)isoquinoline-6-carboxamide], the IC50 in assay [3] was 0.019 µM.

With `COc1cc2c(OC[C@@H]3CCC(=O)N3)cccc2cc1C(N)=O` [Example 173, 3-methoxy-5-{[(2S)-5-oxopyrrolidin-2-yl]methoxy}naphthalene-2-carboxamide], the figures for the “% inhib TNF” value with serum TNF (Dose 30 mpk) and in the assay on serum TNF (Dose 100 mpk) were 55% and 98%, respectively.

On to `CC(C)Oc1cc2c(OC[C@]34CNC(=O)[C@H]3C4)nccc2cc1C(N)=O` [Example 175, 1-{[(1S,5S)-4-oxo-3-azabicyclo[3.1.0]hex-1-yl]methoxy}-7-(propan-2-yloxy)isoquinoline-6-carboxamide], for which, in assay [3], the IC50 was 0.101 µM.

On to `CC(C)Oc1cc2c(OC[C@@H]3C[C@](O)(CC(F)(F)F)C(=O)N3)nccc2cc1C(N)=O` [Example 184, 1-{[(2S,4S)-4-hydroxy-5-oxo-4-(2,2,2-trifluoroethyl)pyrrolidin-2-yl]methoxy}-7-(propan-2-yloxy)isoquinoline-6-carboxamide], for which the IC50 in assay [3] worked out at 0.06 µM.

Consider `COc1cc2c(OC[C@H]3NC(=O)[C@@H](F)[C@H]3C)nccc2cc1C(N)=O` [Example 189, 1-{[(2S,3S,4S)-4-fluoro-3-methyl-5-oxopyrrolidin-2-yl]methoxy}-7-methoxyisoquinoline-6-carboxamide], for which, in the assay on serum TNF (Dose 30 mpk), the “% inhib TNF” value was 40%. Also, in assay [2], the IC50 was found to be 12 nM.

Take `CC(C)Oc1cc2c(OCC3CCNC3)nccc2cc1C(N)=O` (centres unmarked) [Example 191, 7-(propan-2-yloxy)-1-(pyrrolidin-3-ylmethoxy)isoquinoline-6-carboxamide]: the IC50 in assay [3] turned out to be 0.252 µM.

As to `COc1cc2c(OC[C@@H]3C[C@](C)(F)C(=O)N3)cccc2cc1C(N)=O` [Example 194, 5-{[(2S,4S)-4-fluoro-4-methyl-5-oxopyrrolidin-2-yl]methoxy}-3-methoxynaphthalene-2-carboxamide], the results for the IC50 in assay [1] and in assay [2] were 0.001 µM and 5.2 nM, respectively. In addition, the “% inhib TNF” value with serum TNF (Dose 30 mpk) amounted to 76%.

In the case of `COc1cc2c(OC[C@@H]3NC(=O)CC3(C)C)nccc2cc1C(N)=O` [Example 222, 1-{[(2R)-3,3-dimethyl-5-oxopyrrolidin-2-yl]methoxy}-7-methoxyisoquinoline-6-carboxamide], in assay [3], the IC50 was found to be 1.87 µM.

Regarding `CC(C)Oc1cc2c(OC[C@@H]3NC(=O)CC3(C)C)nccc2cc1C(N)=O` [Example 223, 1-{[(2R)-3,3-dimethyl-5-oxopyrrolidin-2-yl]methoxy}-7-(propan-2-yloxy)isoquinoline-6-carboxamide], the IC50 in assay [3] was determined as 0.015 µM.

As a reminder, the IC50 is the point on the concentration scale where inhibition reaches its midpoint.
